Test results: ChEMBL document CHEMBL1137245, “Synthesis and anti-HIV-1 activity of a novel series of 1,4,2-benzodithiazine-dioxides” (Bioorg Med Chem Lett, 2006)

Key:
[1] = tested on: CCRF-CEM; experiment: Cytotoxicity against CEM cells; type: cell-based; conditions: Homo sapiens
[2] = Therapeutic index, ratio of IC50 for CEM cells to EC50 for HIV1; type: cell-based, CCRF-CEM; conditions: human, read-out: Ratio IC50/EC50
[3] = tested on: Human immunodeficiency virus 1; experiment: Antiviral activity against HIV1 in CEM cells; type: functional, organism-based; conditions: Human immunodeficiency virus 1, CCRF-CEM

| Compound | EC50 [3] [µM] | IC50 [1] [µM] | selectivity ratio [2] |
| --- | --- | --- | --- |
| O=S1(=O)c2ccc(Cl)cc2SC2=NCCCN21 | 4.75 | > 200 | > 42.1 |
| Cc1cc2c(cc1Cl)SC1=NCCN1S2(=O)=O | 16.5 | 135 | 8.2 |
| Cc1cc2c(cc1Cl)SC1=NCC(C)CN1S2(=O)=O (stereo not drawn) | 162 | > 200 | > 1.23 |
| Cc1cc2c(cc1Cl)SC1=NCC(C)N1S2(=O)=O (stereo not drawn) | 8.52 | 107 | 12.6 |
| Cc1cc2c(cc1Cl)SC1=NC(CSCc3ccccc3)CN1S2(=O)=O (stereo not drawn) | > 200 | 135 | – |

Stronger by EC50 [3], values ahead:

| EC50 [3] [µM] | Compound | IC50 [1] [µM] | selectivity ratio [2] |
| --- | --- | --- | --- |
| 4.04 | Cc1cc2c(cc1Cl)SC1=NC(CCl)CN1S2(=O)=O (stereo not drawn) | 28 | 6.4 |
| 0.98 | Cc1cc2c(cc1Cl)SC1=NCCCN1S2(=O)=O | > 200 | > 204 |
| 0.09 | Cc1cc(Cl)cc2c1S(=O)(=O)N1CCCN=C1S2 | 106 | 1180 |
